Measurements reported in PubChem BioAssay (NCI).
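Exposure lasted 48 hours, with cells grown in 96-well plates and compounds tested at five concentrations. Abbreviation: GI50, concentration required for 50% inhibition of growth. TGI marks complete inhibition of growth.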

Columns and labels:
Test in all cases: NCI-60 cell line screen, 48 h; in the data active = GI50 below about 0.43 µM; inactive = the rest
SF-268 CNS = system: SF-268 CNS
MOLT-4 leukemia = system: MOLT-4 leukemia
CCRF-CEM leukemia = system: CCRF-CEM leukemia
SK-MEL-5 melanoma = system: SK-MEL-5 melanoma
KM12 colon = system: KM12 colon
RPMI-8226 leukemia = system: RPMI-8226 leukemia
SK-MEL-28 melanoma = system: SK-MEL-28 melanoma
EKVX NSCLC = system: EKVX NSCLC
XF 498 CNS = system: XF 498 CNS
OVCAR-4 ovarian = system: OVCAR-4 ovarian
SNB-75 CNS = system: SNB-75 CNS
OVCAR-5 ovarian = system: OVCAR-5 ovarian
HOP-92 NSCLC = system: HOP-92 NSCLC
TK-10 renal = system: TK-10 renal
NCI-H23 lung = system: NCI-H23 lung
RXF 393 renal = system: RXF 393 renal
A549 NSCLC = system: A549 NSCLC
HL-60(TB) leukemia = system: HL-60(TB) leukemia
UACC-257 melanoma = system: UACC-257 melanoma
A498 renal = system: A498 renal
786-0 renal = system: 786-0 renal
DMS 273 small cell lung = system: DMS 273 small cell lung
SK-MEL-2 melanoma = system: SK-MEL-2 melanoma
M14 melanoma = system: M14 melanoma
DMS 114 small cell lung = system: DMS 114 small cell lung
OVCAR-8 ovarian = system: OVCAR-8 ovarian
SF-295 CNS = system: SF-295 CNS
HOP-18 NSCLC = system: HOP-18 NSCLC
M19-MEL melanoma = system: M19-MEL melanoma
SNB-78 CNS = system: SNB-78 CNS
OVCAR-3 ovarian = system: OVCAR-3 ovarian
NCI-H226 lung = system: NCI-H226 lung
SNB-19 CNS = system: SNB-19 CNS
SR leukemia = system: SR leukemia
SW-620 colon = system: SW-620 colon
HCC-2998 colon = system: HCC-2998 colon
LXFL 529 NSCLC = system: LXFL 529 NSCLC
NCI-H460 lung = system: NCI-H460 lung
ACHN renal = system: ACHN renal
IGROV1 ovarian = system: IGROV1 ovarian
SF-539 CNS = system: SF-539 CNS
MALME-3M melanoma = system: MALME-3M melanoma
UACC-62 melanoma = system: UACC-62 melanoma
DLD-1 colon = system: DLD-1 colon
HCT-116 colon = system: HCT-116 colon
LOX IMVI melanoma = system: LOX IMVI melanoma
SN12C renal = system: SN12C renal
UO-31 renal = system: UO-31 renal
HT29 colon = system: HT29 colon
HCT-15 colon = system: HCT-15 colon
KM20L2 colon = system: KM20L2 colon
CAKI-1 renal = system: CAKI-1 renal
HOP-62 NSCLC = system: HOP-62 NSCLC
K-562 leukemia = system: K-562 leukemia

CNC=O.[O]=[Ge].[O]=[Ge].[O]=[Ge].[O]=[Ge][OH].[O]=[Ge][OH]
> 100 µM: TGI (SF-268 CNS) | TGI (MOLT-4 leukemia) | TGI (CCRF-CEM leukemia) | TGI (SK-MEL-5 melanoma) | TGI (KM12 colon) | TGI (RPMI-8226 leukemia) | TGI (SK-MEL-28 melanoma) | TGI (EKVX NSCLC) | TGI (XF 498 CNS) | TGI (OVCAR-4 ovarian) | TGI (SNB-75 CNS) | TGI (OVCAR-5 ovarian) | TGI (HOP-92 NSCLC) | TGI (TK-10 renal) | TGI (NCI-H23 lung) | TGI (RXF 393 renal) | TGI (A549 NSCLC) | TGI (HL-60(TB) leukemia) | TGI (UACC-257 melanoma) | TGI (A498 renal) | TGI (786-0 renal) | TGI (DMS 273 small cell lung) | TGI (SK-MEL-2 melanoma) | TGI (M14 melanoma) | TGI (DMS 114 small cell lung) | TGI (OVCAR-8 ovarian) | TGI (SF-295 CNS) | TGI (HOP-18 NSCLC) | TGI (M19-MEL melanoma) | TGI (SNB-78 CNS) | TGI (OVCAR-3 ovarian) | TGI (NCI-H226 lung) | TGI (SNB-19 CNS) | TGI (SR leukemia) | TGI (SW-620 colon) | TGI (HCC-2998 colon) | TGI (LXFL 529 NSCLC) | TGI (NCI-H460 lung) | TGI (ACHN renal) | TGI (IGROV1 ovarian) | TGI (SF-539 CNS) | TGI (MALME-3M melanoma) | TGI (UACC-62 melanoma) | TGI (DLD-1 colon) | TGI (HCT-116 colon) | TGI (LOX IMVI melanoma) | TGI (SN12C renal) | TGI (UO-31 renal) | TGI (HT29 colon) | TGI (HCT-15 colon) | TGI (KM20L2 colon) | TGI (CAKI-1 renal) | TGI (HOP-62 NSCLC) | TGI (K-562 leukemia)
inactive: GI50 (LXFL 529 NSCLC) > 100 µM
